Reference: patent US11147859B2, “Diffusion enhancing compounds and their use alone or with thrombolytics” (Diffusion Pharmaceuticals LLC, priority 2009, dated 2021)
Where “and” joins values, the source holds several entries; their conditions need not be identical. Equal entries are not always repeated. Entries after “also recorded” stand apart in the source; their conditions may differ.

Key:
[1] = test system: rabbit small clot embolic stroke model (RSCEM); test: Rabbit small clot embolic stroke model (RSCEM), quantal dose-response analysis of behavior; assay type: in vivo, Male New Zealand white rabbits; conditions: TSC 0.25 mg/kg IV bolus 1 hour post-embolization; behavior measured 24 hours following embolization; Mean±SEM
Description: Methods: This model uses rabbits and is known as RSCEM. Male New Zealand white rabbits were anesthetized using isoflurane (5% induction, 2% maintenance by facemask), the bifurcation of the right carotid artery was exposed and the external carotid was ligated just distal to the bifurcation, where a catheter was inserted into the common carotid and secured with ligatures. The incision was closed around the catheter with the distal ends left accessible outside the neck; the catheter was filled with heparinized saline and plugged with an injection cap. Rabbits were allowed to recover from anesthesia for a minimum of 2 h until they behaved normally. […] Microclots were re-suspended in PBS, then washed and allowed to settle, followed by aspiration of the supernatant and spiking of the microclots with tracer quantities of 15-μm radiolabeled microspheres. The specific activity of the particles was determined by removing an aliquot, after which appropriate volumes of PBS solution were added so that a predetermined weight of clot particles were rapidly injected through the catheter and both the syringe and catheter were flushed with 5 ml of normal saline. […]
These parameters are measures of the amount of microclots (in mg) that produce neurologic dysfunction in 50% of a group of animals (P50). The P50 values are then calculated as described previously and are presented as Mean±SEM. […]

[2] = test system: collagenase-injection model of ICH; test: Collagenase-injection model of intracranial hemorrhage (ICH); assay type: in vivo, Sprague-Dawley rats
Procedure: Twelve male, Sprague-Dawley rats (Taconic, Inc.), weighing between 250 to 300 Grams were fed ad libitum and maintained on a 12-hour light/dark cycle. The rats were randomly assigned to 1 of 2 groups as follows: TSC-treated group (n=6) receiving intravenous infusion of TSC (total dose 0.091 mg/kg) and a Control group receiving intravenous infusion of 0.9% normal saline. A collagenase-injection model of ICH was utilized. Animals were anesthetized for 5 minutes with 5% halothane and endotracheally intubated. Anesthesia was maintained under 1 to 1.5% halothane with ventilation supported using Fi02 of 50%. Tail artery cannulation was applied to monitor the blood pressure and arterial blood gas, and a rectal temperature probe monitored body temperature. The right femoral vein was cannulated and connected to a microinjection infusion pump for TSC or saline administration. Body temperature was maintained at 37° C. with a heating pad. Rats were secured into a stereotactic frame with a midline incision over the skull and a cranial burr hole of 1 mm in diameter was drilled with 0.2 mm anterior and 3.5 mm right lateral to Bregma. A 26-gauge needle was inserted stereotactically into the right basal ganglion (5.5 mm ventral) and 5 μL collagenase (0.05 U bacteria collagenase; type IV, Sigma Chemical Co.) was infused at a rate of 1 μL/min using a microinfusion pump. The needle was kept in the striatum for an additional 5 minutes to limit collagenase flow back into the burr hole. After withdrawing the needle, the craniotomy was sealed with bone wax and the wound was sutured closed. TSC was injected intravenously 3 hours after ICH at a final total dosage of 0.091 mg/kg. The TSC formulation used was the sterile lyophilized TSC injectable formulation which was reconstituted with sterile water for injection and diluted with deionized water pH'd to 8.0 with dilute sodium carbonate. […] The outcomes assessed 48 hours post-ICH included hematoma volume, hemoglobin content representing hemorrhagic volume in the injected striatum, and tissue edema. […] Using Meta Morph image analysis software, the hemorrhage area for each section was measured and the total hematoma volume was calculated by summing the clot area in each section and multiplying by the thickness of the sections. A tissue edema index was calculated in each rat by measuring and comparing both of the hemispheres (Edema Index=(R−L)×100/L, R is right hemisphere volume, L is left hemisphere volume). A hemorrhagic volume index was quantified by measuring hemoglobin content in the injected hemisphere. […] This reaction converts hemoglobin to cyanomethemoglobin, the concentration of which can be assessed by the optical density (OD) of the solution at 550 nm wavelength. […]

[3] = test system: ischemic tissue in brain sections; test: Ischemic stroke model: middle cerebral artery and two carotid arteries ligated for 2 hours; assay type: in vivo; conditions: TSC 0.1 mg/kg given after removal of 2 hour ligature; rats sacrificed after 24 hours
Procedure: In order to find new drugs for stoke victims, different animal models of ischemic stroke are used. In one model, blood vessels (middle cerebral artery, two carotid arteries) are ligated for a period of 2 hours. The ligature is then removed, a drug is given, and the animals (rats in this case) are sacrificed after 24 hours. The brain sections are stained and examined in order to determine the amount of damaged (ischemic) tissue.

[4] = Solubility of TSC in aqueous cyclodextrin solutions; assay type: physicochemical
[5] = Stability of TSC in formulation as a function of pH; assay type: physicochemical; conditions: formulation with glycine buffer; pH around 8.2+/-0.5 required
[6] = Absorption of TSC into the blood stream after intramuscular injection with gamma cyclodextrin; assay type: in vivo; conditions: rats
[7] = TSC 0.1 mg/kg, rat collagenase model (summary in description)

## CC(/C=C/C=C(\C)C(=O)[O-])=C\C=C\C=C(C)\C=C\C=C(/C)C(=O)[O-].[Na+].[Na+] [TSC, trans sodium crocetinate]
[1]
  P50 (amount of microclots that produces neurologic dysfunction in 50% of a group of animals): 2.84±1.01 mg and 2.84±0.51 mg
[2]; [7]
  hemorrhage volume (amount of blood that hemorrhages into the brain): decrease
  reduction in amount of edema caused by the hemorrhagic stroke: about 50%
[2]; TSC total dose 0.091 mg/kg IV starting 3 hours after ICH, assessed 48 hours post-ICH, n=6, 0.091 mg/kg
  hematoma volume/size after ICH vs saline control: slightly, but not statistically significantly, reduced; also recorded: did not differ
[2]; TSC total dose 0.091 mg/kg IV starting 3 hours after ICH, assessed 48 hours post-ICH, n=6, p<0.05
  reduction in hemorrhagic volume (tissue hemoglobin content) vs saline control: approximately 20%
[3]
  reduction in the amount of ischemic tissue: about 60%
[4]; TSC and gamma-cyclodextrin
  TSC concentration reached in aqueous solution: ≤ 44 milligrams of TSC per ml of solution
[4]; TSC formulated with a cyclodextrin and mannitol
  TSC concentration reached in solution: over 20 mg TSC/ml of solution
[5]
  stability versus pH: more stable at higher pHs
[6]
  absorption into the blood stream: quick
